Measured values from publication PMC4578755, “Development of novel cellular histone-binding and chromatin-displacement assays for bromodomain drug discovery” (Epigenetics & Chromatin, 2015).

Biological target: T1, endogenous TRIM24 in OV90 cells (Homo sapiens, UniProt O15164)
T1 construct: non-transfected OV90 cells looking at endogenous TRIM24; endogenous in cells; host or cells: OV90
T1 sequence (O15164 1-1050): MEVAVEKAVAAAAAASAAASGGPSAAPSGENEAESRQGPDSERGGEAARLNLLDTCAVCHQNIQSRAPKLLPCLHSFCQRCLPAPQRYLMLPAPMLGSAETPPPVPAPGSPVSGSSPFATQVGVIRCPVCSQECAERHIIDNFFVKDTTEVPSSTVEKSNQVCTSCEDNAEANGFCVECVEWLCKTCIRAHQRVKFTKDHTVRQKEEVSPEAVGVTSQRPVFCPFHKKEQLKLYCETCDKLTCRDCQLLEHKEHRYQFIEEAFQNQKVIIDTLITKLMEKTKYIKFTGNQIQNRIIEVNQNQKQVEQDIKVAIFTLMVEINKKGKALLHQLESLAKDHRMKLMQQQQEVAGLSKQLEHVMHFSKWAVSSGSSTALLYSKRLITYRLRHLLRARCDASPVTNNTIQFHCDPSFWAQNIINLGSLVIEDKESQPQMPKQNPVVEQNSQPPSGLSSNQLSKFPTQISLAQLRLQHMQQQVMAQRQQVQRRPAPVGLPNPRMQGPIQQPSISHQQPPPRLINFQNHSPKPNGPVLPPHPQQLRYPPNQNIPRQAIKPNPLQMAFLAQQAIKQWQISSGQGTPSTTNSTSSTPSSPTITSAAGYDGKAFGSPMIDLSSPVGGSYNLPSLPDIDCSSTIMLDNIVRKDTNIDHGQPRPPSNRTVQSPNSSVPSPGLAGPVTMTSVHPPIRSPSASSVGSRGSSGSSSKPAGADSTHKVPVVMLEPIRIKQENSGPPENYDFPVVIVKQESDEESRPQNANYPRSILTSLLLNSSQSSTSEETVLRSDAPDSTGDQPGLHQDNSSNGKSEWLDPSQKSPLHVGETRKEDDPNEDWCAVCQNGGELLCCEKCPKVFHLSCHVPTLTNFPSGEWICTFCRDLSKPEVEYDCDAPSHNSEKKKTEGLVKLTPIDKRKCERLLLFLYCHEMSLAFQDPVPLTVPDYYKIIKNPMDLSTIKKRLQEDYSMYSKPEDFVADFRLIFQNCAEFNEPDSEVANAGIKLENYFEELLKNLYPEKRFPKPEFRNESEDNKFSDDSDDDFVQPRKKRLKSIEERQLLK
Assay: In situ cell extraction with IF in OV90 cells
Type: cell-based
Description: OV90 or HeLa cells (20,000 cells/100 µL) were seeded into 96-well plates (Corning Costar #3603) using RPMI or DMEM medium, respectively, supplemented with 10 % FBS and grown overnight. Test agents were serially diluted in DMSO (with or without SAHA) to generate 10X master compound plates. From here, 11 µL was transferred into each well containing 100 µL of growth media followed by shaking on a rotation table (15 min, 300 rpm at RT) and incubation at 37 °C for 2 h. Plates were washed once with PBS (150 µL/well) and then with cold, freshly prepared Cytoskeleton (CSK) Buffer (10 mM PIPES, 300 mM Sucrose, 100 mM NaCl, 3 mM MgCl2; pH = 6.8). Immediately thereafter, soluble, non-chromatin-bound proteins were extracted by addition of cold CSK Buffer supplemented with 0.5 % Triton X-100 (150 µL per well) for 10 min at 4 °C followed by 4 % paraformaldehyde fixation (10 min at RT) (Additional file 1: Table S3).
Standard IF procedures were used. Briefly, cells were permeabilized (0.5 % Triton X-100 in PBS) for 15 min and incubated with blocking solution (DAKO #X0909) for 30 min. The following primary antibodies were used: goat anti-V5 (Bethyl #A190-119A) 1:200; mouse anti-FLAG (Sigma #F1804) 1:200; rabbit anti-BRD4 (Abcam #ab128874) 1:200; rabbit anti-TRIM24 (Proteintech #14208-1-AP) 1:400; rabbit anti-K3K23Ac (Cell Signaling #8848) 1:200, and mouse anti-histone H3 (Active Motif #39763) 1:4000. Alexa Fluor-conjugated secondary antibodies were from Invitrogen and Hoechst 33342 (Invitrogen, #H3570) was used for nuclei counterstaining (10 µg/ml). For each Alexa fluorochrome, images (4–10 fields per well; 20X magnifications) were acquired using the Operetta High-Content Screening System (PerkinElmer). Image analysis was performed in Harmony software (PerkinElmer) by selecting nuclei and cytoplasm in Hoechst channel. Gating for single cells of flat morphology was done based on nuclei area, roundness and intensity of Hoechst in the nucleus and in the cytoplasm. In every gated cell, the mean signal intensity value for each fluorochrome was calculated separately in nucleus and cytoplasm. The specific nuclear signal was estimated subtracting mean cytoplasmic value from nuclear; and average value was calculated using at least 1000 cells in each well.
Supplemental Table S3 (Zhan et al.)
Table S3. In Situ Cell Extraction Procedure (IF)
Step Parameter Solution Volume Time Temp (°C)
Seed cells DMEM supplemented with 10 % FBS 37°C,
2 SAHA treatment SAHA (50 µM) in DMEM with 10% FBS 12 µL 2h 37°C,
3 Prepare Master 100X final concentration in assay 30 µL […]
Image analysis: The analysis was performed in Harmony (PerkinElmer) software by selecting nuclei and cytoplasm in Hoechst 33342 channel . […] For each channel “mean nuclear signal“ was calculated as “mean […]

Mean IF nuclei intensity of endogenous TRIM24 (OV90, SAHA treatment)	Histone H3 protein levels (OV90, 10 µM, 2 h)	Chromatin binding of endogenous TRIM24 (OV90 cells)	Time to displacement of endogenous TRIM24 from chromatin (non-transfected OV90 cells) [min]	SMILES
did not change	–	–	–	O=C(CCCCCCC(=O)Nc1ccccc1)NO [SAHA, Suberoylanilide Hydroxamic Acid]
–	unchanged	readily reduced	≤ 5	Cc1nc(S(=O)(=O)Nc2cc3c(cc2Oc2cccc(OCC(C)C)c2)n(C)c(=O)n3C)cn1C [IACS-6558, N-{1,3-dimethyl-6-[3-(2-methylpropoxy)phenoxy]-2-oxo-2,3-dihydro-1H-1,3-benzodiazol-5-yl}-1,2-dimethyl-1H-imidazole-4-sulfonamide]
